Reference: patent US20230405136A1, “New Combinations of Boron Compounds and Adjuvants for the Treatment of Pathophysiological Conditions and Cancer and for Muscle Regeneration” (Consorcio Centro De Investigacion Biomedica En Red, M.P., priority 2020, published 2023)

Columns and labels:
Assay type in all cases: cell-based
[1] = test system: human WT, DMD and DM1 cells; assay: Myotube formation, across WT, DMD and DM1 cells
Protocol: Briefly, the aforementioned cells (DMD, DM1 and WT) were cultured and maintained in 75 cm 2 flasks with skeletal growth medium (Promocell skeletal muscle cell basal medium supplemented with growth factors, calf serum and P/S 1%) at 37° C. in a humidified atmosphere of 5% CO2, until 80% confluence. Glass cover slip substrates (12 mm diameter) were sterilised with UV light for 30 min and then coated with 3.6 μg of fibronectin (FN). After incubation with the FN coating for 1 h at RT, cells were then seeded at 40.000 cells/well (p-24 plate) in skeletal muscle cell basal medium.
(§1) For the examples where a boron compound was added, after the previous step, different amounts of the boron compound were added in the culture medium, Promocell skeletal muscle cell basal medium).
(§2) After 24 h of culture growth medium was changed by myoblast differentiation medium (DMEM high glucose/P/S 1%, insulin 10 μg/mL) and for the examples where the boron compound was added, then different amounts of boron compound were added. Differentiation medium was changed every 2 days and if necessary, the same amount of the boron compound, as previously incorporated was also added in every change. Myotube formation was evaluated after 8 days.
Cells were fixed with formalin 4% at the end of the culture for 30 minutes at 4° C. After fixing, cells were washed and conserved at 4° C. in DPBS. Starting with the fixed cells preserved at 4° C. in DPBS, samples were then rinsed with DPBS and permeabilised with DPBS/0.5% Triton X-100 at room temperature for 5 min. Samples were then incubated with sarcomeric α-actinin primary antibody (abcam, 1:200), muscle marker for immunofluorescence detection, in blocking buffer DPBS/2% BSA at 37° C. for 1 h or overnight at 4° C. […]
Cells were cultured and maintained in 75 cm^2 flasks with skeletal growth medium (Promocell skeletal muscle cell basal medium supplemented with growth factors, calf serum and P/S 1%) at 37° C. in a humidified atmosphere of 5% CO2, until 80% confluence. […] Myotube formation was evaluated after 8 days. […]

[2] = test system: human DM1 cells; assay: Myotube formation (sarcomeric α-actinin immunofluorescence) in DM1 muscle cells; conditions: 8 days
Protocol: (§3) Briefly, the aforementioned cells (DMD, DM1 and WT) were cultured and maintained in 75 cm 2 flasks with skeletal growth medium (Promocell skeletal muscle cell basal medium supplemented with growth factors, calf serum and P/S 1%) at 37° C. in a humidified atmosphere of 5% CO2, until 80% confluence. […] After incubation with the FN coating for 1 h at RT, cells were then seeded at 40.000 cells/well (p-24 plate) in skeletal muscle cell basal medium.
as §1, §2
(§4) Cells were fixed with formalin 4% at the end of the culture for 30 minutes at 4° C. After fixing, cells were washed and conserved at 4° C. in DPBS. Starting with the fixed cells preserved at 4° C. in DPBS, samples were then rinsed with DPBS and permeabilised with DPBS/0.5% Triton X-100 at room temperature for 5 min. Samples were then incubated with sarcomeric α-actinin primary antibody (abcam, 1:200), muscle marker for immunofluorescence detection, in blocking buffer DPBS/2% BSA at 37° C. for 1 h or overnight at 4° C. The samples were then rinsed twice in DPBS/0.1% Triton X-100 and incubated with the secondary antibody anti mouse Cy3 (Invitrogen, 1:200) in blocking buffer at room temperature for 1 h. Finally, samples were washed twice in DPBS/0.1% Triton X-100 before mounting with Vectashield containing DAPI (Vector Laboratories) and observed under an epifluorescence microscope (Nikon Eclipse 80i).
(§5) Cells were cultured and maintained in 75 cm^2 flasks with skeletal growth medium (Promocell skeletal muscle cell basal medium supplemented with growth factors, calf serum and P/S 1%) at 37° C. in a humidified atmosphere of 5% CO2, until 80% confluence. […] After incubation with the FN coating for 1 h at RT, cells were then seeded at 40,000 cells/well (p-24 plate) in Promocell skeletal muscle cell basal medium. After 24 h of culture, growth medium was changed by myoblast differentiation medium (DMEM high glucose/P/S 1%, insulin 10 μg/mL) and different amounts of bortezomib 5.4 10^−6 μg (0.0000054 μg) Ex 1.1, 2.7 10^−5 μg (0.000027 μg) Ex 1.2, 5.4 10^−5 μg (0.000054 μg) Ex 1.3, and 1.1 10^−4 μg (0.00011 μg) Ex 1.4 (all non-cytotoxic concentrations) were added to each sample in the culture medium. Differentiation medium was changed every 2 days and the different amounts of bortezomib 5.4 10^−6 μg, 2.7 10^−5 μg, 5.4 10^−5 μg and 1.1 10^−4 μg, were added to each sample in every change. Myotube formation was evaluated after 8 days. Cells were fixed as described in the control samples. Afterwards, the samples were also rinsed and washed as described in the control samples. […]

[3] = test system: human DMD cells; assay: Myotube formation (sarcomeric α-actinin immunofluorescence) in DMD muscle cells; conditions: 8 days
[4] = test system: human DMD cells; assay: as above; conditions: 8 days; remark: listed apart in the source
Protocol: as §3, §1, §2, §4, §5

[5] = test system: human wild type (WT) cells; assay: Myotube formation (sarcomeric α-actinin immunofluorescence) in wild type muscle cells; conditions: 8 days
Protocol: as §3, §1, §2, §4, §5

[6] = bortezomib added in the culture medium, 8 days
[7] = DM1, without fibronectin, bortezomib 1.1 10^−4 μg
[8] = DM1, without fibronectin, bortezomib 2.7 10^−5 μg
[9] = DM1, without fibronectin, bortezomib 5.4 10^−5 μg
[10] = DM1, without fibronectin, bortezomib 5.4 10^−6 μg
[11] = DM1-FN, with fibronectin (3.6 μg coating), bortezomib 1.1 10^−4 μg
[12] = DM1-FN, with fibronectin (3.6 μg coating), bortezomib 2.7 10^−5 μg
[13] = DM1-FN, with fibronectin (3.6 μg coating), bortezomib 5.4 10^−5 μg
[14] = DM1-FN, with fibronectin (3.6 μg coating), bortezomib 5.4 10^−6 μg
[15] = DMD, without fibronectin, bortezomib 1.1 10^−4 μg
[16] = DMD, without fibronectin, bortezomib 2.7 10^−5 μg
[17] = DMD, without fibronectin, bortezomib 5.4 10^−5 μg
[18] = DMD, without fibronectin, bortezomib 5.4 10^−6 μg
[19] = DMD-FN, with fibronectin (3.6 μg coating), bortezomib 2.7 10^−5 μg
[20] = DMD-FN, with fibronectin (3.6 μg coating), bortezomib 5.4 10^−5 μg
[21] = DMD-FN, with fibronectin (3.6 μg coating), bortezomib 1.1 10^−4 μg
[22] = DMD-FN, with fibronectin (3.6 μg coating), bortezomib 5.4 10^−6 μg
[23] = WT, without fibronectin, bortezomib 1.1 10^−4 μg
[24] = WT, without fibronectin, bortezomib 2.7 10^−5 μg
[25] = WT, without fibronectin, bortezomib 5.4 10^−5 μg
[26] = WT, without fibronectin, bortezomib 5.4 10^−6 μg
[27] = WT-FN, with fibronectin (3.6 μg coating), bortezomib 1.1 10^−4 μg
[28] = WT-FN, with fibronectin (3.6 μg coating), bortezomib 2.7 10^−5 μg
[29] = WT-FN, with fibronectin (3.6 μg coating), bortezomib 5.4 10^−5 μg
[30] = WT-FN, with fibronectin (3.6 μg coating), bortezomib 5.4 10^−6 μg

CC(C)C[C@H](NC(=O)[C@H](Cc1ccccc1)NC(=O)c1cnccn1)B(O)O [bortezomib, ((R)-3-Methyl-1-((S)-3-phenyl-2-(pyrazine-2-carboxamido)propanamido)butyl)boronic acid]
myotube diameter [1, 6]: importantly increased myotube diameter | myotube differentiation [1, 6]: enhanced myotube differentiation | myotube formation and diameter ([1]; dystrophic cells, bortezomib together with FN): restored myotube formation (fusion capability) and improved myotube diameter | % of cell differentiation [2, 7]: 1% | myotube diameter [2, 7]: 4 μm | % of cell differentiation [2, 8]: 13% | myotube diameter [2, 8]: 11 μm | % of cell differentiation [2, 9]: 0.5% | myotube diameter [2, 9]: 4 μm | % of cell differentiation [2, 10]: 14% | myotube diameter [2, 10]: 11 μm | % of cell differentiation [2, 11]: 1% | myotube diameter [2, 11]: 23 μm | % of cell differentiation [2, 12]: 55% | myotube diameter [2, 12]: 79 μm | % of cell differentiation [2, 13]: 54% | myotube diameter [2, 13]: 130 μm | % of cell differentiation [2, 14]: 37% | myotube diameter [2, 14]: 44 μm | % of cell differentiation [3, 15]: 1% | myotube diameter [3, 15]: 2 μm | myotube diameter [3, 16]: 27 μm | % of cell differentiation [3, 17]: 5% | myotube diameter [3, 17]: 5 μm | % of cell differentiation [3, 18]: 9% | myotube diameter [3, 18]: 15 μm | % of cell differentiation [3, 19]: 80% | myotube diameter [3, 20]: 46 μm | % of cell differentiation [4, 16]: 31% | % of cell differentiation [4, 21]: 17% | myotube diameter [4, 21]: 17 μm | myotube diameter [4, 19]: 72 μm | % of cell differentiation [4, 20]: 61% | % of cell differentiation [4, 22]: 47% | myotube diameter [4, 22]: 45 μm | % of cell differentiation [5, 23]: 0% | myotube diameter [5, 23]: 0 μm | % of cell differentiation [5, 24]: 55% | myotube diameter [5, 24]: 60 μm | % of cell differentiation [5, 25]: 45% | myotube diameter [5, 25]: 48 μm | % of cell differentiation [5, 26]: 47% | myotube diameter [5, 26]: 32 μm | % of cell differentiation [5, 27]: 39% | myotube diameter [5, 27]: 63 μm | % of cell differentiation [5, 28]: 79% | myotube diameter [5, 28]: 319 μm | % of cell differentiation [5, 29]: 72% | myotube diameter [5, 29]: 270 μm | % of cell differentiation [5, 30]: 70% | myotube diameter [5, 30]: 122 μm
